Some test systems named below: HCC-2998 colon; SK-MEL-28 melanoma; BT-549 breast; SF-268 CNS; A498 renal; A549 NSCLC; MOLT-4 leukemia; NCI-H23 lung; LOX IMVI melanoma; 786-0 renal.
Common to all, as to experiment: inhibition of tumour cell growth, NCI panel, 48 h

Each structure is given as a SMILES string. Several values for one entry are separate records, joined by “and”; a condition that tells them apart may be missing. Equal entries are not always repeated.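 Results reflect a 48-hour exposure of cells in 96-well plates to compound at five concentrations. GI50 is the concentration that inhibits growth by half. At the TGI there is no net growth.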 Some results are limits rather than exact numbers.

On to `Cc1cc(O)c2c(c1)C(=O)C=CC2=O`, for which the TGI in the assay with HCC-2998 colon is 25.4 µM and 30 µM; with SK-MEL-28 melanoma, 35.5 µM and 23.6 µM; in the assay on BT-549 breast, 30.3 µM and 21 µM; in the assay with SF-268 CNS, 48.3 µM and 31.5 µM; in the assay with A498 renal it was 40.7 µM and 75.2 µM; with A549 NSCLC, 58 µM and 42.9 µM. Also, the TGI was 1.71 µM and 1.61 µM with MOLT-4 leukemia; 27.9 µM and 23 µM in the assay on NCI-H23 lung; 12.6 µM and > 100 µM in the assay on LOX IMVI melanoma; 12.9 µM and > 21.6 µM in the assay on 786-0 renal. Also, the GI50 with SK-MEL-28 melanoma is 20.4 µM and 8.89 µM; with BT-549 breast it was 15.5 µM and 6.9 µM; with 786-0 renal, 5.8 µM and 2.59 µM.

On to `O=C(NCCNCCO)c1ccc2c(c1)oc1cc3ccccc3c(=O)n12`, for which the GI50 with SK-MEL-28 melanoma was > 50 µM; in the assay with BT-549 breast, 18.8 µM; in the assay with SF-268 CNS it was 19.6 µM; with A549 NSCLC it was 16.2 µM; in the assay with MOLT-4 leukemia it was 44.3 µM; in the assay on NCI-H23 lung, 22.5 µM. Further, the GI50 in the assay on LOX IMVI melanoma was 17.4 µM; in the assay on 786-0 renal it was > 50 µM. The TGI with SK-MEL-28 melanoma, in the assay on BT-549 breast, in the assay on SF-268 CNS, in the assay on A549 NSCLC, in the assay with MOLT-4 leukemia and in the assay with NCI-H23 lung was > 50 µM throughout. The TGI with LOX IMVI melanoma was 40.6 µM; in the assay on 786-0 renal it was > 50 µM.

Take `CCn1cc(C(=O)O)c(=O)c2cc(F)c(N3CCN(S(=O)(=O)c4cccc5ccccc45)CC3)cc21`: the GI50 in the assay with HCC-2998 colon was 4.26 µM; in the assay on SK-MEL-28 melanoma it was 6.09 µM; in the assay on BT-549 breast, 3.69 µM; with SF-268 CNS, 4.39 µM; in the assay on A498 renal, 2.74 µM; in the assay with A549 NSCLC, 2.87 µM. The GI50 was 4.46 µM in the assay with MOLT-4 leukemia, 3.13 µM in the assay with NCI-H23 lung and 4.5 µM with 786-0 renal. For the same compound, the TGI in the assay with HCC-2998 colon is 61.9 µM; with SK-MEL-28 melanoma, > 100 µM; in the assay with BT-549 breast, > 100 µM; with SF-268 CNS, > 100 µM; in the assay on A498 renal, > 100 µM; in the assay on A549 NSCLC, > 100 µM. For the same compound, the TGI with MOLT-4 leukemia is > 100 µM; in the assay on NCI-H23 lung, 12.1 µM; with 786-0 renal it was 20.9 µM.

As to `O=C1NC(=N[C@@H](CO)c2ccccc2)S/C1=C\c1ccc2ncccc2c1`, the GI50 in the assay with HCC-2998 colon was 11.2 µM; in the assay on SK-MEL-28 melanoma, > 20.2 µM; in the assay on BT-549 breast, 4.07 µM; in the assay on SF-268 CNS, 14.1 µM; with A498 renal, 4.29 µM; with A549 NSCLC, 9.83 µM. Moreover, the GI50 was 9.19 µM with MOLT-4 leukemia, 8.92 µM with NCI-H23 lung, 6.15 µM in the assay with LOX IMVI melanoma and > 21.9 µM in the assay with 786-0 renal. Also, the TGI in the assay with HCC-2998 colon was > 25 µM; in the assay with SK-MEL-28 melanoma, > 25 µM; in the assay with BT-549 breast, > 18.5 µM; with SF-268 CNS, > 25 µM; in the assay on A498 renal, > 21.9 µM; with A549 NSCLC it was > 25 µM. Further, the TGI with MOLT-4 leukemia was > 25 µM; with NCI-H23 lung, > 25 µM; with LOX IMVI melanoma, > 18.3 µM; with 786-0 renal, > 25 µM.

For the compound `O=C(OCc1ccc2c(Br)cc(Br)c(O)c2n1)c1cc2ccccc2[nH]1`, the GI50 with HCC-2998 colon was 1.57 µM; in the assay with SK-MEL-28 melanoma, 1.24 µM; with BT-549 breast it was 0.706 µM; in the assay on SF-268 CNS, 1.44 µM; in the assay with A498 renal it was 1.56 µM; with A549 NSCLC, 1.42 µM. Also, the GI50 in the assay on MOLT-4 leukemia was 0.488 µM; in the assay on NCI-H23 lung, 1.44 µM; with LOX IMVI melanoma, 0.185 µM; with 786-0 renal it was 0.851 µM. Besides, the TGI with HCC-2998 colon is 3.1 µM; in the assay on SK-MEL-28 melanoma, 2.51 µM; with BT-549 breast, 2.06 µM; with SF-268 CNS it was 2.91 µM; with A498 renal, 2.96 µM; in the assay on A549 NSCLC, 3.62 µM. For the same compound, the TGI in the assay on MOLT-4 leukemia worked out at 2.49 µM; in the assay with NCI-H23 lung it was 3.14 µM; in the assay with LOX IMVI melanoma, 0.405 µM; in the assay on 786-0 renal, 2.22 µM.

For the compound `OC1(c2ccc(Cl)c(C(F)(F)F)c2)CCN(CCCC(c2ccc(F)cc2)c2ccc(F)cc2)CC1`, the GI50 is 0.762 µM with HCC-2998 colon; 0.889 µM in the assay with SK-MEL-28 melanoma; 1.09 µM in the assay on BT-549 breast; 0.894 µM with SF-268 CNS; 0.515 µM with A498 renal; 0.837 µM with A549 NSCLC. Besides, the GI50 was 1.03 µM with MOLT-4 leukemia, 0.83 µM in the assay with NCI-H23 lung, 0.821 µM in the assay with LOX IMVI melanoma and 0.832 µM in the assay on 786-0 renal. Moreover, the TGI in the assay on HCC-2998 colon came out at 1.43 µM; with SK-MEL-28 melanoma it was 1.58 µM; in the assay with BT-549 breast, 2.1 µM; in the assay on SF-268 CNS, 1.88 µM; in the assay on A498 renal, 1.12 µM; with A549 NSCLC, 1.58 µM. The TGI amounted to 2.38 µM with MOLT-4 leukemia, 1.62 µM with NCI-H23 lung, 1.52 µM with LOX IMVI melanoma and 1.52 µM in the assay with 786-0 renal.

On to `Nc1nc2c(c3cnccc13)C(c1ccc(Cl)c(Cl)c1)Cc1cnccc1-2` (stereo not drawn), for which the GI50 in the assay on HCC-2998 colon is 1.65 µM; in the assay with SK-MEL-28 melanoma it was 2.85 µM; in the assay with BT-549 breast it was 0.57 µM; in the assay on SF-268 CNS, 1.18 µM; with A498 renal, 0.227 µM; with A549 NSCLC it was 0.665 µM. Moreover, the GI50 with MOLT-4 leukemia was 0.48 µM; in the assay on NCI-H23 lung, 1.14 µM; with LOX IMVI melanoma, 0.293 µM; in the assay on 786-0 renal, 0.565 µM. The TGI with HCC-2998 colon turned out to be 7.37 µM; with SK-MEL-28 melanoma, 19 µM; in the assay with BT-549 breast, 7.3 µM; with SF-268 CNS it was 18.3 µM; in the assay with A498 renal, 1.01 µM; with A549 NSCLC, 4.84 µM. Also, the TGI was determined as 5.48 µM in the assay on MOLT-4 leukemia, 9.13 µM with NCI-H23 lung, 11 µM in the assay on LOX IMVI melanoma and 3.9 µM in the assay on 786-0 renal.

`FC(F)(F)Oc1cccc(-c2cc(NCCCCCCNc3cc(-c4cccc(OC(F)(F)F)c4)nc4ccc(N5CCCC5)cc34)c3cc(N4CCCC4)ccc3n2)c1`: the GI50 in the assay on HCC-2998 colon was 1.74 µM; in the assay on SK-MEL-28 melanoma, 1.83 µM; with BT-549 breast, 1.78 µM; in the assay on SF-268 CNS, 1.94 µM; in the assay on A498 renal it was 2.05 µM; with A549 NSCLC, 2.05 µM. Also, the GI50 in the assay on LOX IMVI melanoma is 1.85 µM; with 786-0 renal, 1.8 µM. Besides, the TGI in the assay with HCC-2998 colon was 3.27 µM; in the assay on SK-MEL-28 melanoma it was 3.3 µM; with BT-549 breast, 3.72 µM; with SF-268 CNS, 3.9 µM; with A498 renal, 3.57 µM; with A549 NSCLC, 4.49 µM. For the same compound, the TGI in the assay with LOX IMVI melanoma was determined as 3.54 µM; in the assay with 786-0 renal it was 3.49 µM.
